Experimental data from ChEMBL document CHEMBL1147661, “The first potent inhibitor of mammalian group X secreted phospholipase A2: elucidation of sites for enhanced binding” (J Med Chem, 2006).

How the values were obtained:
[1] = target: T1, Group IIE secretory phospholipase A2 (Homo sapiens, UniProt Q9NZK7); experiment: Inhibition of human recombinant sPLA2 G2E
T1 sequence (Q9NZK7 whole entry): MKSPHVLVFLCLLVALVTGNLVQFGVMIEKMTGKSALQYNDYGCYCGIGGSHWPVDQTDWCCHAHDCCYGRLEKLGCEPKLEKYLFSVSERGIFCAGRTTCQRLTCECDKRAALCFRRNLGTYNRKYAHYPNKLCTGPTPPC

[2] = target: T2, Group IIE secretory phospholipase A2 (Mus musculus, UniProt Q9QUL3); experiment: Inhibition of mouse recombinant sPLA2 G2E
T2 sequence (Q9QUL3 whole entry): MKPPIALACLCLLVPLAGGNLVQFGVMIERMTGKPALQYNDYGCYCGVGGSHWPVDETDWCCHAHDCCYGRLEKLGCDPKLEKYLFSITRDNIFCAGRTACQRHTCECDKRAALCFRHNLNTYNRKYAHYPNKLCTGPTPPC

[3] = target: T3, Phospholipase A2, membrane associated (Homo sapiens, UniProt P14555); experiment: Inhibition of human recombinant sPLA2 G2A
T3 sequence (P14555 whole entry): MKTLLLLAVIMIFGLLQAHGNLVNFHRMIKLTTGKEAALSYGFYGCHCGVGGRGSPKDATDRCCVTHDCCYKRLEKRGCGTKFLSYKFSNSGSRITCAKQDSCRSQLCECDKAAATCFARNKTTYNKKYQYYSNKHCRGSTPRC

Phospholipase A2 [4] = target: Phospholipase A2 (Homo sapiens, UniProt P04054); experiment: Inhibition of human recombinant sPLA2 G1B
Chain of Phospholipase A2 (Homo sapiens, UniProt P04054) (P04054 whole entry): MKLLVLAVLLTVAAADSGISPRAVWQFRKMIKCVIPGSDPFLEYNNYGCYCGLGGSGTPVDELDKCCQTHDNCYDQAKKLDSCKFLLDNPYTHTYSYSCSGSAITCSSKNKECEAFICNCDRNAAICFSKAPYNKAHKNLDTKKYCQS

Phospholipase A2 [5] = target: Phospholipase A2 (Mus musculus, UniProt Q9Z0Y2); experiment: Inhibition of mouse recombinant sPLA2 G1B
Chain of Phospholipase A2 (Mus musculus, UniProt Q9Z0Y2) (Q9Z0Y2 whole entry): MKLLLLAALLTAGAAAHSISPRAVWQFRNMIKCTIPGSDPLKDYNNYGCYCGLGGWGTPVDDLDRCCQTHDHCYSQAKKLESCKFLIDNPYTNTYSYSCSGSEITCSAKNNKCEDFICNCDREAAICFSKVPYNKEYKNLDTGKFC

[6] = target: T4, Group 10 secretory phospholipase A2 (Mus musculus, UniProt Q9QXX3); experiment: Inhibition of mouse recombinant sPLA2 G10
T4 sequence (Q9QXX3 whole entry): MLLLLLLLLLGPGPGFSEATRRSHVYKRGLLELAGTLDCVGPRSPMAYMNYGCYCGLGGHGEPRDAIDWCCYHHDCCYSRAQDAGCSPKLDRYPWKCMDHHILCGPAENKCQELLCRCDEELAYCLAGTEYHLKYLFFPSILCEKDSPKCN

[7] = target: T5, Group 10 secretory phospholipase A2 (Homo sapiens, UniProt O15496); experiment: Inhibition of human recombinant sPLA2 G10
T5 sequence (O15496 whole entry): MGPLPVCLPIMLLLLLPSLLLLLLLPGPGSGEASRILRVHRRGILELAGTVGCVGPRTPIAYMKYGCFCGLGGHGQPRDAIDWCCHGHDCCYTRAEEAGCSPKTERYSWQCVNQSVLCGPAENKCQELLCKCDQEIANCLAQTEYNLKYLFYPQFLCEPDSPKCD

[8] = target: T6, Phospholipase A2, membrane associated (Mus musculus, UniProt P31482); experiment: Inhibition of mouse recombinant sPLA2 G2A
T6 sequence (P31482 whole entry): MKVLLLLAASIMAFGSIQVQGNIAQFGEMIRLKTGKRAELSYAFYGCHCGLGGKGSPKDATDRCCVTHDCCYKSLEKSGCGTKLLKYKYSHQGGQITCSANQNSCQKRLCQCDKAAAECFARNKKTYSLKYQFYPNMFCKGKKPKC

Phospholipase A2 group V [9] = target: T7, Phospholipase A2 group V (Mus musculus, UniProt P97391); experiment: Inhibition of mouse recombinant sPLA2 G5
T7 sequence (P97391 whole entry): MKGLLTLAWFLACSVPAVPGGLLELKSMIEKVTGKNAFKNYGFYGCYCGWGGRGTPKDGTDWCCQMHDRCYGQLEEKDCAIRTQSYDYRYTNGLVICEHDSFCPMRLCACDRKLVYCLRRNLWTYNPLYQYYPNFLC

Phospholipase A2 group V [10] = target: T8, Phospholipase A2 group V (Homo sapiens, UniProt P39877); experiment: Inhibition of human recombinant sPLA2 G5
T8 sequence (P39877 whole entry): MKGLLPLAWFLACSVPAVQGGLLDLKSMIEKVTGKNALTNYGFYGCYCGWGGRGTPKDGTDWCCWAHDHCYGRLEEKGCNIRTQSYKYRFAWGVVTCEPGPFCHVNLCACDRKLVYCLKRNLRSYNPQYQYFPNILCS

Row | SMILES | IC50 [1] [nM] | IC50 [2] [nM] | IC50 [3] [nM] | IC50 (Phospholipase A2 [4]) [nM] | IC50 (Phospholipase A2 [5]) [nM] | IC50 [6] [nM] | IC50 [7] [nM] | IC50 [8] [nM] | IC50 (Phospholipase A2 group V [9]) [nM] | IC50 (Phospholipase A2 group V [10]) [nM]
1 | CCc1c(C(=O)C(N)=O)c2c(OCC(=O)O)cc(C)cc2n1Cc1ccccc1 | 50 | 75 | 125 | 800 | 200 | – | – | – | – | –
2 | Cc1cc(OCC(=O)O)c2c(C(=O)C(N)=O)c(C)n(Cc3ccccc3)c2c1 | 125 | 400 | 300 | 2000 | 2000 | 2500 | 2200 | 125 | 850 | 800
3 | Cc1c(C(=O)C(N)=O)c2c(OCC(=O)O)cccc2n1Cc1ccccc1 | 75 | 400 | 275 | 2500 | 2200 | 2500 | 2000 | 125 | 1000 | 800
4 | CCc1c(C(=O)C(N)=O)c2c(OCC(=O)O)cccc2n1Cc1ccccc1 [VARESPLADIB] | 50 | 75 | – | 750 | 140 | 75 | – | 70 | 750 | 500
